Source: patent US7494996B2 (priority 2000, dated 2009)

How the values were obtained:
Pyricularia oryzae = assay: whole plant or invertebrate; format: in vivo; settings: 100 is total disease control, 0 is no disease control; for Rice Blast (RB) protectant fungicide data, percent control: 300 g/ha, greenhouse; for pest or weed control at 300 g/ha: Pyricularia oryzae, topical, 144 h, read-out: Rice Blast (RB) protectant fungicide data, percent control, protectant, 300 g/ha, greenhouse
Sphaerotheca fuliginea = assay: Cucumber Powdery Mildew (CPM) protectant test in the greenhouse; format: in vivo; settings: 100 is total disease control, 0 is no disease control; for Cucumber Powdery Mildew (CPM) protectant fungicide data, percent control: 300 g/ha; for pest or weed control at 300 g/ha: Podosphaera fuliginea, topical, 168 h, read-out: Cucumber Powdery Mildew (CPM) protectant fungicide data, percent control
Description: Plants used in the fungicide testing program were grown in 2-¼-inch (5.7-cm). square pots containing RediEarth propagation substrate. The plants were raised under greenhouse conditions. The rice plants were 12-days-old and cucumbers were 13-days-old at the time of spraying with chemical treatments.
The sample of the experimental chemical was weighed and dissolved in an acetone-methanol-water solution (A/M/W at 1:1:2 ratio by volume).
After sprayer calibration, the test solutions were poured into the fungicide sprayer. The fungicide sprayer contains three spray nozzles, located approximately 10 cm above and to the sides of the plants. The spray produced by the nozzles results in uniform coverage of both the upper and lower parts of the plant leaves. After spraying, the treated plants were placed in a drying chamber for 4 hours, prior to sorting.
Cucumber Powdery Mildew (CPM), caused by the fungus Sphaerotheca fuliginea, was maintained on large cucumber plants. For inoculum preparation, five to eight leaves depending on size, completely covered with powdery mildew spores, were collected. The leaves were placed in a glass jar and covered with 500 ml of water, containing 5 drops of Tween-80. The material was filtered through two layers of cheesecloth to remove leaf fragments. The spore count was adjusted to 2×10^5 spores per ml.
Cucumber plants, cv. “Bush Champion,” were used for this test. The plants were thinned to one per pot after the cotyledons were fully developed. Two days before the test, the small leaves and meristem region were removed, leaving only the cotyledons and one large true leaf.
The protectant tests required that the cucumber plants be inoculated 1 day after spraying with the chemical treatment. The plants were inoculated with a hand-held spray bottle with the suspension of fungal spores. The leaves were lightly misted on the upper surface from two different spray directions. Disease development occurred in the greenhouse.
After seven days, the plants were evaluated for percent of disease control. The results are reported as percent control; 100 is total disease control, 0 is no disease control.

Q: Which “Rice Blast (RB) protectant fungicide data, percent control” value (from here on “Rice Blast … percent control”) (Pyricularia oryzae) does the source give for `Cc1ccccc1C1=NN(CC(F)(F)F)C(=O)C(O)N1` (stereo not drawn) [Compound 105] here?
A: The value was 85 percent control.

Q: What about the “Cucumber Powdery Mildew (CPM) protectant fungicide data, percent control” value (“Cucumber Powdery Mildew … percent control” below) (Sphaerotheca fuliginea) of the same compound?
A: The value was 75 percent control.

Q: Which “Rice Blast … percent control” value (Pyricularia oryzae) does the source give for `CCC#CCN1N=C(c2ccc(Cl)c(Cl)c2)NCC1=O` [Compound 210] here?
A: Its value is 100 percent control.

Q: What about the “Cucumber Powdery Mildew … percent control” value (Sphaerotheca fuliginea) of the same compound?
A: Its value is 25 percent control.

Q: Which results are given for `COc1ccc(C2=NN(CC(F)(F)F)C(=O)CN2)cc1` [Compound 35]?
A: Rice Blast (RB) protectant fungicide data, percent control (Pyricularia oryzae): 50 percent control; Cucumber Powdery Mildew (CPM) protectant fungicide data, percent control (Sphaerotheca fuliginea): 50 percent control

Q: How did the “Rice Blast … percent control” value (Pyricularia oryzae) turn out when `CCOC(=O)CN1N=C(c2ccc(Cl)c(Cl)c2)NCC1=O` [Compound 102] was run?
A: Its value is 85 percent control.

Q: And the “Cucumber Powdery Mildew … percent control” value (Sphaerotheca fuliginea)?
A: The value was 50 percent control.

Q: Which results are given for `O=C1CNC(c2ccc(F)c(Br)c2)=NN1CC(F)(F)F` [Compound 208]?
A: Rice Blast (RB) protectant fungicide data, percent control (Pyricularia oryzae): 95 percent control; Cucumber Powdery Mildew (CPM) protectant fungicide data, percent control (Sphaerotheca fuliginea): 50 percent control

Q: Which results are given for `CCCCN1N=C(c2ccc(-c3ccc(C(=O)OCC)cc3)cc2)NCC1=O` [Compound 206]?
A: Rice Blast (RB) protectant fungicide data, percent control (Pyricularia oryzae): 85 percent control; Cucumber Powdery Mildew (CPM) protectant fungicide data, percent control (Sphaerotheca fuliginea): 80 percent control

Q: Which results are given for `C#CCN1CC(=O)N(CCCC)N=C1c1ccc(Cl)c(Cl)c1` [Compound 168]?
A: Rice Blast (RB) protectant fungicide data, percent control (Pyricularia oryzae): 95 percent control; Cucumber Powdery Mildew (CPM) protectant fungicide data, percent control (Sphaerotheca fuliginea): 50 percent control

Q: Which results are given for `N#CCN1N=C(c2ccc(Cl)cc2)NCC1=O` [Compound 60]?
A: Rice Blast (RB) protectant fungicide data, percent control (Pyricularia oryzae): 75 percent control; Cucumber Powdery Mildew (CPM) protectant fungicide data, percent control (Sphaerotheca fuliginea): 0 percent control

Q: How did the “Rice Blast … percent control” value (Pyricularia oryzae) turn out when `O=C1CNC(c2cccc([N+](=O)[O-])c2)=NN1Cc1ccccc1` [Compound 184] was run?
A: Its value is 85 percent control.

Q: What about the “Cucumber Powdery Mildew … percent control” value (Sphaerotheca fuliginea) of the same compound?
A: Its value is 75 percent control.

Q: For `CCCN1N=C(c2cc(Cl)cc(Cl)c2)NCC1=O` [Compound 164], which “Rice Blast … percent control” value (Pyricularia oryzae) is on record?
A: The value was 100 percent control.

Q: And the “Cucumber Powdery Mildew … percent control” value (Sphaerotheca fuliginea)?
A: Its value is 95 percent control.

Q: For `CCCCN1N=C(c2cc(Cl)cc(Cl)c2)N(C(=O)OCCl)CC1=O` [Compound 15, 1-(n-butyl)-3-(3,5-dichlorophenyl)-4-(chloromethyloxycarbonyl)-4,5-dihydro-1,2,4-triazin-6-one], which pest or weed control at 300 g/ha (Pyricularia oryzae) is on record?
A: Its pest or weed control at 300 g/ha is 75%.

Q: What about the pest or weed control at 300 g/ha (Sphaerotheca fuliginea) of the same compound?
A: The pest or weed control at 300 g/ha was 50%.

Q: What does the source list for `CCOc1ccc(-c2ncc(=O)n(-c3ccc(Cl)cc3)n2)cc1` [Compound 274]?
A: Rice Blast (RB) protectant fungicide data, percent control (Pyricularia oryzae): 85 percent control; Cucumber Powdery Mildew (CPM) protectant fungicide data, percent control (Sphaerotheca fuliginea): 0 percent control

Q: Which “Rice Blast … percent control” value (Pyricularia oryzae) does the source give for `C#CCN1CC(=O)N(CC#C)N=C1c1ccc(Cl)c(Cl)c1` [Compound 216] here?
A: Its value is 98 percent control.

Q: And the “Cucumber Powdery Mildew … percent control” value (Sphaerotheca fuliginea)?
A: The value was 80 percent control.

Q: Which “Rice Blast … percent control” value (Pyricularia oryzae) does the source give for `COc1ccc(C2=NN(CC(F)(F)F)C(=O)C(OC)N2)cc1` (stereo not drawn) [Compound 39] here?
A: Its value is 99 percent control.

Q: And the “Cucumber Powdery Mildew … percent control” value (Sphaerotheca fuliginea)?
A: Its value is 85 percent control.

Q: How did the “Rice Blast … percent control” value (Pyricularia oryzae) turn out when `CCCOc1ccc(-c2ncc(=O)n(CC(F)(F)F)n2)cc1` [Compound 281] was run?
A: The value was 85 percent control.

Q: What about the “Cucumber Powdery Mildew … percent control” value (Sphaerotheca fuliginea) of the same compound?
A: Its value is 95 percent control.

Q: Which “Rice Blast … percent control” value (Pyricularia oryzae) does the source give for `O=C1CNC(c2ccccn2)=NN1Cc1ccccc1` [Compound 185] here?
A: The value was 80 percent control.

Q: And the “Cucumber Powdery Mildew … percent control” value (Sphaerotheca fuliginea)?
A: The value was 75 percent control.

Q: `CCCCn1nc(-c2ccc(F)c(Br)c2)ncc1=O` [Compound 289] was tested. Which “Rice Blast … percent control” value (Pyricularia oryzae) did it give?
A: The value was 100 percent control.

Q: And the “Cucumber Powdery Mildew … percent control” value (Sphaerotheca fuliginea)?
A: Its value is 50 percent control.

Q: With `N#CCn1nc(-c2ccc(Cl)cc2)ncc1=O` [Compound 264] as the compound, how does the “Rice Blast … percent control” value (Pyricularia oryzae) read?
A: Its value is 50 percent control.

Q: And the “Cucumber Powdery Mildew … percent control” value (Sphaerotheca fuliginea)?
A: The value was 0 percent control.

Q: How did the “Rice Blast … percent control” value (Pyricularia oryzae) turn out when `O=C1CN(CCCl)C(c2cc(Cl)cc(Cl)c2)=NN1CC(F)(F)F` [Compound 126] was run?
A: The value was 50 percent control.

Q: What about the “Cucumber Powdery Mildew … percent control” value (Sphaerotheca fuliginea) of the same compound?
A: Its value is 0 percent control.

Q: With `O=c1cnc(-c2ccc(Cl)c(Cl)c2)nn1CC1CC1` [Compound 272] as the compound, how does the “Rice Blast … percent control” value (Pyricularia oryzae) read?
A: The value was 100 percent control.

Q: What about the “Cucumber Powdery Mildew … percent control” value (Sphaerotheca fuliginea) of the same compound?
A: The value was 80 percent control.

Q: How did the pest or weed control at 300 g/ha (Pyricularia oryzae) turn out when `CCCCN1N=C(c2ccc(C3=NN(CCCC)C(=O)CN3)cc2)NCC1=O` [Compound 230] was run?
A: Its pest or weed control at 300 g/ha is 75%.

Q: What about the pest or weed control at 300 g/ha (Sphaerotheca fuliginea) of the same compound?
A: Its pest or weed control at 300 g/ha is 0%.

Q: `C=CCOC(=O)N1CC(=O)N(CC(F)(F)F)N=C1c1cc(Cl)cc(Cl)c1` [Compound 10, 1-(2,2,2-trifluoroethyl)-3-(3,5-dichlorophenyl)-4-allyloxycarbonyl-4,5-dihydro-1,2,4-triazin-6-one] was tested. Which pest or weed control at 300 g/ha (Pyricularia oryzae) did it give?
A: The pest or weed control at 300 g/ha was 90%.

Q: And the pest or weed control at 300 g/ha (Sphaerotheca fuliginea)?
A: The pest or weed control at 300 g/ha was 0%.

Q: Which results are given for `O=C1CNC(c2ccc(Cl)cc2)=NN1Cc1ccccc1` [Compound 30]?
A: Rice Blast (RB) protectant fungicide data, percent control (Pyricularia oryzae): 85 percent control; Cucumber Powdery Mildew (CPM) protectant fungicide data, percent control (Sphaerotheca fuliginea): 75 percent control

Q: With `CCCCCCN1N=C(c2ccc(Cl)cc2)NCC1=O` [Compound 55] as the compound, how does the “Rice Blast … percent control” value (Pyricularia oryzae) read?
A: Its value is 90 percent control.

Q: What about the “Cucumber Powdery Mildew … percent control” value (Sphaerotheca fuliginea) of the same compound?
A: Its value is 50 percent control.

Q: With `CCCCN1N=C(c2ccc(Cl)c(Cl)c2)NCC1=S` [Compound 17, 1-Butyl-3-(3,4-dichlorophenyl)-4,5-dihydro-1,2,4-triazin-6-thione] as the compound, how does the pest or weed control at 300 g/ha (Pyricularia oryzae) read?
A: The pest or weed control at 300 g/ha was 99%.

Q: And the pest or weed control at 300 g/ha (Sphaerotheca fuliginea)?
A: The pest or weed control at 300 g/ha was 80%.

Q: For `CCCOc1ccc(C2=NN(CC(F)(F)F)C(=O)CN2)cc1` [Compound 145], which “Rice Blast … percent control” value (Pyricularia oryzae) is on record?
A: The value was 90 percent control.

Q: And the “Cucumber Powdery Mildew … percent control” value (Sphaerotheca fuliginea)?
A: The value was 0 percent control.

Q: For `C=C(Cl)CN1N=C(c2cc(Cl)cc(Cl)c2)NCC1=O` [Compound 65], which “Rice Blast … percent control” value (Pyricularia oryzae) is on record?
A: The value was 95 percent control.

Q: And the “Cucumber Powdery Mildew … percent control” value (Sphaerotheca fuliginea)?
A: The value was 50 percent control.

Q: What does the source list for `N#CCCN1N=C(c2ccc(-c3ccc([N+](=O)[O-])cc3)cc2)NCC1=O` [Compound 166]?
A: Rice Blast (RB) protectant fungicide data, percent control (Pyricularia oryzae): 75 percent control; Cucumber Powdery Mildew (CPM) protectant fungicide data, percent control (Sphaerotheca fuliginea): 0 percent control

Q: How did the “Rice Blast … percent control” value (Pyricularia oryzae) turn out when `CSc1ccc(C2=NN(CC(F)(F)F)C(=O)CN2)cc1` [Compound 147] was run?
A: The value was 98 percent control.

Q: And the “Cucumber Powdery Mildew … percent control” value (Sphaerotheca fuliginea)?
A: Its value is 0 percent control.

Q: With `O=C1CNC(c2cc(Cl)cc(Cl)c2)=NN1` [Compound 64] as the compound, how does the “Rice Blast … percent control” value (Pyricularia oryzae) read?
A: Its value is 50 percent control.

Q: What about the “Cucumber Powdery Mildew … percent control” value (Sphaerotheca fuliginea) of the same compound?
A: Its value is 0 percent control.

Q: Which “Rice Blast … percent control” value (Pyricularia oryzae) does the source give for `O=C1CN(C(=O)Oc2ccccc2)C(c2cc(Cl)cc(Cl)c2)=NN1CC(F)(F)F` [Compound 193] here?
A: The value was 80 percent control.

Q: What about the “Cucumber Powdery Mildew … percent control” value (Sphaerotheca fuliginea) of the same compound?
A: The value was 0 percent control.

Q: What does the source list for `CCCCn1nc(-c2cc(Cl)ccc2Cl)ncc1=O` [Compound 269]?
A: Rice Blast (RB) protectant fungicide data, percent control (Pyricularia oryzae): 99 percent control; Cucumber Powdery Mildew (CPM) protectant fungicide data, percent control (Sphaerotheca fuliginea): 0 percent control

Q: Which results are given for `CCC#CCN1CC(=O)N(CCCC)N=C1c1ccc(Cl)c(Cl)c1` [Compound 180]?
A: Rice Blast (RB) protectant fungicide data, percent control (Pyricularia oryzae): 95 percent control; Cucumber Powdery Mildew (CPM) protectant fungicide data, percent control (Sphaerotheca fuliginea): 90 percent control

Q: `O=C1CNC(c2ccc3ccccc3c2)=NN1CC(F)(F)F` [Compound 143] was tested. Which “Rice Blast … percent control” value (Pyricularia oryzae) did it give?
A: Its value is 98 percent control.

Q: And the “Cucumber Powdery Mildew … percent control” value (Sphaerotheca fuliginea)?
A: The value was 50 percent control.

Q: Which “Rice Blast … percent control” value (Pyricularia oryzae) does the source give for `O=C1CNC(c2ccc(F)c(F)c2)=NN1CC(F)(F)F` [Compound 98] here?
A: Its value is 85 percent control.

Q: What about the “Cucumber Powdery Mildew … percent control” value (Sphaerotheca fuliginea) of the same compound?
A: The value was 75 percent control.

Q: Which “Rice Blast … percent control” value (Pyricularia oryzae) does the source give for `O=C1CN(CC2CC2)C(c2ccc(F)c(Br)c2)=NN1CC1CC1` [Compound 219] here?
A: The value was 50 percent control.

Q: And the “Cucumber Powdery Mildew … percent control” value (Sphaerotheca fuliginea)?
A: The value was 75 percent control.
